Data reported in PMC5629014, “Assessment of sesquiterpene lactones isolated from Mikania plants species for their potential efficacy against Trypanosoma cruzi and Leishmania sp” (PLoS Neglected Tropical Diseases, 2017).
≈ marks a conversion by molar mass, not a printed value. Entries after “also recorded” stand apart in the source; their conditions may differ. Like-named read-outs stand apart in the source and are kept apart here.

Assays:
[1] = test system: Leishmania braziliensis promastigotes (MHOM/BR/75/M2903 strain); experiment: Growth inhibition of Leishmania braziliensis promastigotes, MTT method; format: cell-based; conditions: 72 h, read-out: IC50 on L. braziliensis promastigotes
Description: Leishmania braziliensis promastigotes (MHOM/BR/75/M2903 strain) were grown in liver infusion tryptose medium LIT, which was prepared as follows: 5 g/L liver infusion (Sigma 2023-072K1066), 5 g/L tryptose (Britania), 2 g/L glucose (Sigma), 68 mM NaCl, 5.4 mM KCl, 22 mM HPO4Na2, supplemented with 20 mg/L hemin (Sigma) and 10% (vol/vol) fetal calf serum (FCS) (Internegocios). Culture maintenance was performed by weekly passages at 26°C.
The growth inhibition of Leishmania braziliensis promastigotes was evaluated by the MTT method. Parasites (5x10^6) were settled at a final volume of 150 μL in a flat-bottom 96-well microplate and cultured at 37°C in a 5% CO2 atmosphere in the absence or presence of increasing concentrations of the pure compounds. After 72 h, 3-(4,5- dimethylthiazol-2-yl)-2,5-diphenyltetrazolium bromide (MTT) was added at a final concentration of 1.5 mg/mL. Plates were incubated for 2 h at 37°C. The purple formazan crystals formed were completely dissolved by adding 150 μL of ethanol and the absorbance was read at 595 nm in a microplate reader. The inhibition percentage was calculated as {100 − [(DO595nm of treated parasites/ DO595nm of untreated parasites) × 100]}. Compounds were tested at 0–50 μg/mL. Amphotericin B was used as positive control.

[2] = test system: T. cruzi (RA strain); experiment: Animal model of T. cruzi infection (acute, lethal dose); format: in vivo, Balb/c mice
Description: Inbred male Balb/c mice were nursed at the Departamento de Microbiología, Facultad de Medicina, Universidad de Buenos Aires. Groups of six Balb/c male mice (6 to 8 weeks old) were infected with 1000 bloodstream T. cruzi trypomastigotes by the intraperitoneal route. Five days after infection, the presence of circulating parasites was confirmed by the microhematocrit method (Sülsen et al., 2013). Mice were treated daily with compound 3 or benznidazole (1 mg/kg of body weight/day) for five consecutive days (days 4 to 8 post-infection) by the intraperitoneal route. Drugs were resuspended in DMSO and then adjust to concentration in 0.1 M phosphate buffered saline (PBS, pH 7.2); this vehicle was also employed as a negative control. Levels of parasitemia were monitored every 2 days in 5 μL of blood diluted 1:5 in lysis buffer (0.75% NH4Cl, 0.2% Tris, pH 7.2) by counting parasites in a Neubauer chamber. The number of animal deaths was recorded daily.
The weight of each animal was evaluated during the acute phase of infection. Results were expressed as the ratio between the weight on each day and the weight registered the day of the infection multiplied by 100.
Parasitemia and weight loss were analyzed using a non parametric test: Mann-Whitney test. The survival curves were analyzed with a log rank test.

[3] = test system: T. cruzi bloodstream trypomastigotes; experiment: Trypanocidal effect on bloodstream trypomastigotes, live parasite count in Neubauer chamber; format: cell-based; conditions: Trypanosoma cruzi; 24 h, remaining live parasites counted
Description: (§1) Trypanosoma cruzi epimastigotes (RA strain) were grown in a biphasic medium. Cultures were routinely maintained by weekly passages at 28°C. T. cruzi bloodstream trypomastigotes (RA strain) and the recombinant Tulahuen strain expressing β-galactosidase (Tul-β-Gal) were obtained from infected CF1 mice by cardiac puncture at the peak of parasitemia on day 15 post-infection. Trypomastigotes were routinely maintained by infecting 21-day-old CF1 mice.
The trypanocidal effect of the purified compounds was also tested on bloodstream trypomastigotes. Briefly, mouse blood containing trypomastigotes was diluted in complete RPMI -1640 Medium (Sigma-Aldrich R6504- Batch 029K83102) with 10% (vol/vol) fetal calf serum (FCS) (Internegocios) to adjust the parasite concentration to 3 × 10^5/mL. Parasites were seeded in duplicate in a 96-well microplate in the presence of each compound (0–50 μg/mL) or controls and incubated at 4 °C for 24 h. The number of remaining living parasites in each sample was determined in 5 μL of cell suspension diluted 1/5 in lysis buffer (0.75% NH4Cl, 0.2% Tris, pH 7.2) and counted in a Neubauer chamber. Benznidazole was used as positive control.

[4] = test system: T. cruzi amastigotes; experiment: Inhibition of intracellular amastigotes, β-galactosidase transfected parasites in Raw 264.7 cells (CPRG); format: cell-based; conditions: Trypanosoma cruzi
Description: as §1
The effect of each compound on intracellular forms of T. cruzi was assayed using β-galactosidase transfected parasites. Briefly, 96-well plates were seeded with Raw 264.7 cells at 5x10^3 per well in […] of culture medium and incubated for 24 h at 37 °C in a 5% CO2 atmosphere. Cells were washed and infected with transfected blood trypomastigotes expressing β-galactosidase at a parasite/cell ratio of 10:1. After 12 h of co- culture, plates were washed twice with PBS to remove unbound parasites and each pure compound was added at different concentrations (0.001–50 μg/mL) in 150 μL of fresh complete RPMI medium without phenol red (Gibco, Rockville, MD). Controls included infected untreated cells (100% infection control) and uninfected cells (0% infection control). The assay was developed 5 days later by the addition of chlorophenol red-β-D-galactopyranoside (CPRG) (100 mM) and 1% Nonidet P40. Plates were then incubated for 4–6 h at 37 °C and the absorbance was measured at 595 nm in a microplate reader (Bio-Rad Laboratories, Hercules, CA). The percentage inhibition was calculated as 100–{[(absorbance of treated infected cells)/(absorbance of untreated infected cells) x 100} and the IC50 value was estimated. Benznidazole was used as positive control.

[5] = test system: T. cruzi epimastigotes (RA strain); experiment: T. cruzi epimastigotes growth inhibition, [3H] thymidine uptake assay; format: cell-based, Trypanosoma cruzi; conditions: for IC50: Trypanosoma cruzi, read-out: IC50 on T. cruzi epimastigotes
Description: as §1
The evaluation of T. cruzi epimastigotes growth inhibition was performed by the [^3H] thymidine uptake assay. Briefly, exponentially growing epimastigotes were adjusted to a cell density of 1.5 × 10^6 parasites/mL in fresh medium. Parasites were allowed to grow for 72 h at 28°C in medium with or without different concentrations of each compound (0–5 μg/mL) in triplicate. Percent of inhibition was calculated as {100 − [(cpm of treated parasites/ cpm of untreated parasites) × 100]}. The compound concentration at which the parasite growth was inhibited by 50% (IC50) was determined after 72 h. Benznidazole was used as positive control.

[6] = Host cell toxicity, trypan blue exclusion method; format: cell-based, human; conditions: human
Description: (§2) The human monocyte leukemia THP1 (ATCC TIB202) cell line were obtained from the vendor. Cells were thawed, expanded and settled at a concentration 5x10^5 in a final volume of 150 μL in a flat-bottom 96-well microplate and cultured at 37°C in a 5% CO2 atmosphere in the absence or presence of increasing concentrations of the pure compounds. After 24 h, the cell viability was determined by the trypan blue exclusion method in the absence and presence of increasing concentrations of the compounds [26]. The 50% cytotoxic concentration (CC50) and the selectivity index (SI = CC50/IC50) were determined for each compound for T. cruzi trypomastigotes and amastigotes.

[7] = test system: human monocyte leukemia THP1 cells; experiment: Host cell toxicity, trypan blue exclusion method; format: cell-based; conditions: 24 h
Description: as §2

[8] = test system: IL-12; experiment: Cytokine production by macrophages, IL-12 sandwich ELISA; format: cell-based; conditions: RAW 264.7 macrophages, 24 h
Description: […] After 24 h, supernatants were collected and stored at -80 °C until cytokine analysis. IL-12 and TNF-α levels were determined by sandwich ELISA (BD Pharmingen, and R&D System, Minneapolis, MN, respectively) according to manufacturer’s instructions. Supplied standards were used to generate a standard curve.

[9] = test system: TNF-α; experiment: Cytokine production by macrophages, TNF-α sandwich ELISA; format: cell-based; conditions: RAW 264.7 macrophages, 25 μg/mL, 24 h, p<0.01
Description: RAW 264.7 (ATCC TIB71) macrophage cell line were obtained from ATCC and cultured (1×10^5) in duplicate in 24-well plates in the presence of 2.5 or 25 μg/mL of Compound 3, LPS (10 μg/mL) plus INF-γ (0.30 μg/mL) (positive control), or medium alone (negative control). After 24 h, supernatants were collected and stored at -80 °C until cytokine analysis. IL-12 and TNF-α levels were determined by sandwich ELISA (BD Pharmingen, and R&D System, Minneapolis, MN, respectively) according to manufacturer’s instructions. Supplied standards were used to generate a standard curve.

[10] = infected Balb/c mice, 1 mg/kg/day i.p., days 4 to 8 post-infection
[11] = RAW264.7, β-galactosidase expressing T. cruzi in mammalian cells, read-out: IC50 on T. cruzi amastigotes
[12] = 72 h, 28°C, [3H] thymidine uptake
[13] = THP1 (ATCC TIB202) monocyte leukemia cells

Row | SMILES | IC50 ([1]; MTT) [µg/mL] | reduction of area under the parasitemia curve with respect to controls [2, 10] [fold] | IC50 [3] [µg/mL] | IC50 [4, 11] [µg/mL] | IC50 [5, 12] [µg/mL] | CC50 at 24 h [6, 13] [µg/mL] | CC50 [7] [µg/mL] | further results
1 | C[C@@H]1[C@H](O)[C@@H](C)/C=C/C=C/C=C/C=C/C=C/C=C/C=C/[C@H](O[C@@H]2O[C@H](C)[C@@H](O)[C@H](N)[C@@H]2O)C[C@@H]2O[C@](O)(C[C@@H](O)C[C@@H](O)[C@H](O)CC[C@@H](O)C[C@@H](O)CC(=O)O[C@H]1C)C[C@H](O)[C@H]2C(=O)O [amphotericin B, reference compound] | 0.26 (≈ 0.281 µM) | – | – | – | – | – | – | –
2 | O=C(Cn1ccnc1[N+](=O)[O-])NCc1ccccc1 [benznidazole, reference compound] | – | 2.3 | 10.4 (≈ 40 µM) | 1.1 (≈ 4.23 µM) | 1.7 (≈ 6.53 µM) | – | – | –
3 | C=C1C(=O)OC2CC3(C)OC3CCC3=CC(OC3=O)C12 (centres unmarked) [deoxymikanolide] | 11.5 (≈ 41.6 µM) | 1.5 | 1.5 (≈ 5.43 µM) | 6.3 (≈ 22.8 µM) | 0.08 (≈ 0.29 µM) | 79.4 (≈ 287 µM) | 79.4 (≈ 287 µM) | weight loss during the acute phase of infection compared to control mice ([2]; 20 days post infection, p = 0.028): able to reduce the weight loss; blood parasitemia compared to controls ([2]; infected Balb/c mice, 1 mg/kg/day i.p., days 4 to 8 post-infection, 1 mg/kg/day): decrease the parasitemia; also recorded: lower blood parasitemia; mice surviving the acute phase of infection ([2]; lethal T. cruzi infection, controls 100% mortality by day 22, p = 0.02 Log-rank): 70%; IL-12 production ([8]; 2 μg/mL): slight increase; IL-12 production ([8]; 25 μg/mL): higher production rate; secretion of TNF-α compared with negative control [9]: significant increase
4 | C[C@H]1C(=O)O[C@H]2C[C@]3(C)O[C@H]3[C@@H]3O[C@@H]3C3=C[C@@H](OC3=O)[C@@H]21 [dihydromikanolide] | 57.1 (≈ 195 µM) | – | 0.3 (≈ 1.03 µM) | 8.5 (≈ 29.1 µM) | 2.5 (≈ 8.55 µM) | 13 (≈ 44.4 µM) | 13.0 (≈ 44.5 µM) | –
5 | C=C1C(=O)OC2CC3(C)OC3C3OC3C3=CC(OC3=O)C12 (centres unmarked) [mikanolide] | – | – | 2.1 (≈ 7.23 µM) | – | – | – | – | CC50 at 24 h ([6]; THP1 cells): 22.3 µg/mL (≈ 76.8 µM); IC50 [1]: 5.1 µg/mL (≈ 17.6 µM); IC50 ([4]; RAW264.7, read-out: IC50 on T. cruzi amastigotes): 4.5 µg/mL (≈ 15.5 µM); IC50 [5]: 0.7 µg/mL (≈ 2.41 µM)
6 | C=C1C(=O)OC2CC3(C)OC3CC(OC(C)=O)C3=CC(OC3=O)C12 (centres unmarked) [scandenolide] | 252 (≈ 754 µM) | – | 68.4 (≈ 205 µM) | 60.6 (≈ 181 µM) | 137 (≈ 410 µM) | 864 (≈ 2580 µM) | – | activity on Trypanosoma cruzi ([5]; in words, all T. cruzi stages (abstract)): not active
